{"source": "patent US6503506B1", "about": "“Nutrient therapy for immuno-compromised patients” (Millenium Biotechnologies, Inc., priority 2001, dated 2003)", "origin": "cited, not measured here", "key": {"mitochondrial DNA": {"system": "mitochondrial DNA", "conditions": "patients on long-term therapy"}}, "data": [{"compound": "superoxide dismutase [SOD]", "values": [{"measurement": "levels of the virus core protein", "setting": "HIV; indicator of virus presence in the cells", "result": "reduced the levels of the virus core protein"}, {"measurement": "spread of HIV through infected cells", "setting": "HIV; infected white blood cells from patients with HIV", "result": "slowed down the spread of HIV through the infected cells"}]}, {"compound": "COC1=C(OC)C(=O)C(C/C=C(\\C)CC/C=C(\\C)CC/C=C(\\C)CC/C=C(\\C)CC/C=C(\\C)CC/C=C(\\C)CC/C=C(\\C)CC/C=C(\\C)CC/C=C(\\C)CCC=C(C)C)=C(C)C1=O", "note": "[COQ10, Coenzyme Q10]", "values": [{"measurement": "T4/T8 ratios of lymphocytes", "setting": "HIV patients, oral administration", "result": "positive increase in T4/T8 rations"}, {"measurement": "IgG and T4-lymphocytes", "setting": "human studies, administered orally", "result": "increases IgG and T4-lymphocytes"}]}, {"compound": "Cc1cn([C@H]2C[C@H](N=[N+]=[N-])[C@@H](CO)O2)c(=O)[nH]c1=O", "note": "[zidovudine (AZT), zidovudine]", "values": [{"measurement": "levels of mitochondrial DNA in muscle", "setting": "mitochondrial DNA", "result": "depletes levels of mitochondrial DNA in muscle"}]}]}
